Results: patent publication US5622948A, “Pyrrole pyridazine and pyridazinone anti-inflammatory agents” (Syntex (U.S.A.) Inc., priority 1994, dated 1997)

Key:
COX II = molecular target: T1, COX II (Homo sapiens, UniProt P35354); assay: radiometric assay, COX II inhibition (human recombinant, baculovirus expressed, partially purified); type: biochemical; parameters: A 1.8 Kb DNA fragment containing the coding region of human COX II was generated by PCR; made in house; host or cells: Sf9 insect cells, baculovirus; conditions: radiometric assay, human recombinant baculovirus expressed enzyme; read-out: COX II IC50 (Table 2)
T1 sequence (P35354 18-604): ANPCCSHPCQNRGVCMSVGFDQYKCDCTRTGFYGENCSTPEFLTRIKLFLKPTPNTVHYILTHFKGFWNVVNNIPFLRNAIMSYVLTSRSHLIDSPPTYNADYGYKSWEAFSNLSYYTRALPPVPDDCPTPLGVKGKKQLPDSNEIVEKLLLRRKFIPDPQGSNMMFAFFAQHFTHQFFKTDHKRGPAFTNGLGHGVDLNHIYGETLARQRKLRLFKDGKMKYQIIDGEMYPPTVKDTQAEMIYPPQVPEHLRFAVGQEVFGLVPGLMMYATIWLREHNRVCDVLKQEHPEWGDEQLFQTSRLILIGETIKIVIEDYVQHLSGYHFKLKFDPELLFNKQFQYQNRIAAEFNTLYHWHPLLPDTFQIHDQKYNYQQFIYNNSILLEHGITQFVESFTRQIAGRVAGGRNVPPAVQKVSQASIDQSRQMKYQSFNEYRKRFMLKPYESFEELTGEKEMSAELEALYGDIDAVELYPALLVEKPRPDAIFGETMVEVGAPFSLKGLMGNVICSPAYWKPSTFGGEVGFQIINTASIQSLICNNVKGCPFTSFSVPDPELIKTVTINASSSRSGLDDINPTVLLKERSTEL
Protocol: (§1) Human prostaglandin G/H synthase I and II ("COX I" and "COX II") were expressed in the baculovirus expression system and purified to high levels.
(§2) As described above, human recombinant COX I and COX II were cloned and expressed in a baculovirus system. Partially purified COX I and COX II enzymes were used for screening compounds for their ability to inhibit COX I and COX II activity, as described below.
(§3) Compound (16), in 2 μl DMSO, and control samples (carrier vehicles only) were mixed with COX I or COX II samples (e.g. fractions from the chromatography columns) in polypropylene tubes and preincubated with 2 mM phenol for 5 minutes and then with 1 μM hematin for an additional 5 minutes. The 150 μl reaction mixture consisted of 50 mM Tris --HCl, pH 7.9, 2 mM EDTA, 10% glycerol, 200 μM phenol, 1 μM hematin, 1-25 μl sample and 20 μM 1-[^14 C] arachidonate (80.000-100.000 cpm/tube). After 45 seconds at room temperature, the reaction was terminated by adding 200 μl of 2N HCl and 750 μl water. An aliquot (950 μl) of the reaction mixture was loaded onto a 1 ml C~ Sep-Pak (J. T. Baker, Phillipsburg, N.J.) which had been previously washed with 2-3 ml methanol and equilibrated with 5-6 ml distilled water. Oxygenated products were quantitatively eluted with 3 ml of acetonitrile, H2 O and acetic acid (50:50:0.1, v/v) and the radioactivity in the eluate determined in a scintillation counter.
(§4) Human recombinant 10 min incubation with Compound (16)
(§5) baculovirus 45 sec incubation with 20 μM AA
(§6) partially purified Separation of radioactive products

COX I = COX I (Homo sapiens, UniProt P23219); assay: radiometric assay, COX I inhibition (human recombinant, baculovirus expressed, partially purified); type: biochemical; parameters: A 2 Kb fragment containing the coding region of COX I; made in house; host or cells: Sf9 insect cells, baculovirus (cDNA from Oxford Biomedical Research); conditions: radiometric assay, human recombinant baculovirus expressed enzyme; read-out: COX I IC50 (Table 2)
Protocol: as §1, §2, §3, §4, §5, §6

Chain of COX I (P23219 24-599): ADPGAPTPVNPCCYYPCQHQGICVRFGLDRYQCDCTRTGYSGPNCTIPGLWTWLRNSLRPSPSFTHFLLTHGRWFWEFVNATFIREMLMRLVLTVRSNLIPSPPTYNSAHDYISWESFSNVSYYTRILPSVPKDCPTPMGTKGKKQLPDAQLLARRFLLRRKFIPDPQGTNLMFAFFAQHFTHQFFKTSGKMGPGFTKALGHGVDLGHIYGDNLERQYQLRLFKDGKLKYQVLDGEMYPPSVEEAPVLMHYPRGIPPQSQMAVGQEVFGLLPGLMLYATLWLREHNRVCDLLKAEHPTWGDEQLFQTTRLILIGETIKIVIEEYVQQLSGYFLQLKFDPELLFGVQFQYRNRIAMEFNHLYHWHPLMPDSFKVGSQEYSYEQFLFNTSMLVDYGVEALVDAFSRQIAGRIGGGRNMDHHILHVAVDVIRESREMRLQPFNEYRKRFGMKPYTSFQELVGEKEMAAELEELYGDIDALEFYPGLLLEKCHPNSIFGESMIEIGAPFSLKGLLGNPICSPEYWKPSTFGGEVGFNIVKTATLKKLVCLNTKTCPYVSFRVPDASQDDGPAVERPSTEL

Compound	IC50 (COX II)	IC50 (COX I)
Cc1ccc(C(=O)c2ccc(C(C)c3ccc(=O)[nH]n3)n2C)cc1 (centres unmarked) [Compound 95, 6-{1-[1-methyl-5-(4-methyl-benzoyl)-1H-pyrrol-2-yl]-ethyl}-2H-pyridazin-3-one]	1.3 µM	140 µM
Cc1cc(Cc2cc(C)c(=O)[nH]n2)n(C)c1C(=O)c1ccc(Cl)cc1 [Compound 141, 6-[5-(4-chloro-benzoyl)-1,4-dimethyl-1H-pyrrol-2-ylmethyl]-4-methyl-2H-pyridazin-3-one]	0.125 µM	4.9 µM
Cc1cc(Cc2ccc(=O)n(CC(N)=O)n2)n(C)c1C(=O)c1ccc(Cl)cc1 [Compound 120, 2-{3-[5-(4-chloro-benzoyl)-1,4,-dimethyl-1H-pyrrol-2-ylmethyl]-6-oxo-6H-pyridazin-1-yl}-acetamide]	0.8 µM	8.9 µM
Cc1ccc(C(=O)c2ccc(CC3=NNC(=O)CC3)n2C)cc1 [Compound 102, 6-[1-methyl-5-(4-methyl-benzoyl)-1H-pyrrol-2-ylmethyl]-4,5-dihydro-2H-pyridazin-3-one]	3.1 µM	260 µM
Cc1cc(Cc2ccc(=O)[nH]n2)n(C)c1C(=O)c1cccs1 [Compound 144, 6-[1,4-dimethyl-5-(thienyl-2-carbonyl)-1H-pyrrol-2-ylmethyl]-2H-pyridazin-3-one]	0.59 µM	1 µM
Cc1ccc(C(=O)c2c(Cl)cc(Cc3ccc(=O)[nH]n3)n2C)cc1 [Compound 80, 6-[4-chloro-1-methyl-5-(4-methyl-benzoyl)-1H-pyrrol-2-ylmethyl]-2H-pyridazin-3-one]	0.7 µM	≥ 1000 µM
COCCn1nc(Cc2cc(C)c(C(=O)c3ccc(Cl)cc3)n2C)ccc1=O [Compound 124, 6-[5-(4-chloro-benzoyl)-1,4,-dimethyl-1H-pyrrol-2-ylmethyl]-2-(2-methoxy-ethyl)-2H-pyridazin-3-one]	0.54 µM	94 µM
CSc1ccc(C(=O)c2ccc(Cc3ccc(=O)[nH]n3)n2C)cc1 [Compound 43, 6-[1-methyl-5-(4-methylthio-benzoyl)-1H-pyrrol-2-ylmethyl]-2H-pyridazin-3-one]	0.3 µM	23 µM
CNC(=O)Cn1nc(Cc2cc(C)c(C(=O)c3ccc(Cl)cc3)n2C)ccc1=O [Compound 125, 2-{3-[5-(4-chloro-benzoyl)-1,4,-dimethyl-1H-pyrrol-2-ylmethyl]-6-oxo-6H-pyridazin-1-yl}--N-methyl acetamide]	1.6 µM	< 10 µM
Cc1cc(Cc2ccc(=O)n(Cc3c(Cl)cccc3Cl)n2)n(C)c1C(=O)c1ccc(Cl)cc1 [Compound 152, 6-[5-(4-chloro-benzoyl)-1,4,-dimethyl-1H-pyrrol-2-ylmethyl]-2-(2,6-dichlorobenzyl)-2H-pyridazin-3-one]	0.14 µM	10 µM
Cc1cc(Cc2ccc(=O)n(Cc3ccc(Cl)cc3)n2)n(C)c1C(=O)c1ccc(Cl)cc1 [Compound 133, 6-[5-(4-chloro-benzoyl)-1,4,-dimethyl-1H-pyrrol-2-ylmethyl]-2-(4-chlorobenzyl)-2H-pyridazin-3-one]	0.07 µM	3.7 µM
C#CCn1nc(Cc2cc(C)c(C(=O)c3ccc(Cl)cc3)n2C)ccc1=O [Compound 126, 6-[5-(4-chloro-benzoyl)-1,4-dimethyl-1H-pyrrol-2-ylmethyl]-2-prop-2-ynyl-2H-pyridazin-3-one]	0.97 µM	61.4 µM
Cc1cc(Cc2ccc(=O)n(CCC#N)n2)n(C)c1C(=O)c1ccc(Cl)cc1 [Compound 145, 6-[5-(4-chloro-benzoyl)-1,4,-dimethyl-1H-pyrrol-2-ylmethyl]-2-(2-cyano-ethyl)-2H-pyridazin-3-one]	0.91 µM	85 µM
Cc1cc(C(C#N)c2ccc(=O)[nH]n2)n(C)c1C(=O)c1ccc(Cl)cc1 (centres unmarked) [Compound 9, [5-(4-chloro-benzoyl)-1,4-dimethyl-1H-pyrrol-2-yl]-(6-oxo-1,6-dihydro-pyridazin-3-yl)acetonitrile]	0.63 µM	> 100 µM
Cc1ccc(C(=O)c2cc(Br)c(Cc3ccc(=O)[nH]n3)n2C)cc1 [Compound 130, 6-[3-bromo-1-methyl-5-(4-methyl-benzoyl)-1H-pyrrol-2-ylmethyl]-2H-pyridazin-3-one]	0.58 µM	> 100 µM
CC(=O)OCCn1nc(Cc2cc(C)c(C(=O)c3ccc(Cl)cc3)n2C)ccc1=O [Compound 135, acetic acid 2-{3-[5-(4-chloro-benzoyl)-1,4,-dimethyl-1H-pyrrol-2-ylmethyl]-6-oxo-6H-pyridazin-1-yl}ethyl ester]	0.35 µM	52 µM
CC(=O)n1nc(Cc2cc(C)c(C(=O)c3ccc(Cl)cc3)n2C)ccc1=O [Compound 114, 2-acetyl-6-[5-(4-chloro-benzoyl)-1,4,-dimethyl-1H-pyrrol-2-ylmethyl]-2H-pyridazin-3-one]	0.66 µM	82 µM
6-(5-benzoyl-3-chloro-4-methyl-1H-pyrrol-2-ylmethyl)-2H-pyridazin-3-one [Compound 89]	2.3 µM	8.1 µM
Cn1c(Cc2ccc(=O)[nH]n2)cc(Cl)c1C(=O)c1ccc(Cl)cc1 [Compound 81, 6-[4-chloro-5-(4-chloro-benzoyl)-1-methyl-1H-pyrrol-2-ylmethyl]-2H-pyridazin-3-one]	0.44 µM	> 300 µM
Cc1cc(C(C)c2ccc(=O)[nH]n2)n(C)c1C(=O)c1ccc(Cl)cc1 (centres unmarked) [Compound 18, 6-{1-[5-(4-chloro-benzoyl)-1,4-dimethyl-1H-pyrrol-2-yl]-ethyl}-2H-pyridazin-3-one]	1.5 µM	15 µM
Cc1ccc(C(=O)c2c(C)cc(Cc3ccc(=O)[nH]n3)n2C)cc1 [Compound 30, 6-[1,4-dimethyl-5-(4-methyl-benzoyl)-1H-pyrrol-2-ylmethyl]-2H-pyridazin-3-one]	0.5 µM	40 µM
Cn1c(Cc2ccc(=O)[nH]n2)ccc1C(=O)c1ccc(C2CC2)cc1 [Compound 42, 6-[5-(4-cyclopropyl-benzoyl)-1-methyl-1H-pyrrol-2-ylmethyl]-2H-pyridazin-3-one]	0.72 µM	82 µM
Cc1cc(Cc2ccc(=O)n(CCCl)n2)n(C)c1C(=O)c1ccc(Cl)cc1 [Compound 131, 6-[5-(4-chloro-benzoyl)-1,4-dimethyl-1H-pyrrol-2-ylmethyl]-2-(2-chloroethyl)-2H-pyridazin-3-one]	0.12 µM	5.3 µM
Cc1cc(Cc2ccc(=O)[nH]n2)n(C)c1C(=O)c1ccc(F)cc1 [Compound 142, 6-[1,4-dimethyl-5-(4-fluoro-benzoyl)-1H-pyrrol-2-ylmethyl]-2H-pyridazin-3-one]	4.16 µM	67 µM
COc1ccc(C(=O)c2ccc(Cc3ccc(=O)[nH]n3)n2C)cc1 [Compound 53, 6-[5-(4-methoxy-benzoyl)-1-methyl-1H-pyrrol-2-ylmethyl]-2H-pyridazin-3-one]	1 µM	420 µM
COc1ccc(C(=O)c2c(C)cc(Cc3ccc(=O)[nH]n3)n2C)cc1 [Compound 31, 6-[1,4-dimethyl-5-(4-methoxy-benzoyl)-1-H-pyrrol-2-ylmethyl]-2H-pyridazin-3-one]	0.2 µM	35 µM
Cc1cc(Cc2ccc(=O)n(CCF)n2)n(C)c1C(=O)c1ccc(Cl)cc1 [Compound 123, 6-[5-(4-chloro-benzoyl)-1,4-dimethyl-1H-pyrrol-2-ylmethyl]-2-(2-fluoroethyl)-2H-pyridazin-3-one]	< 0.03 µM	3.5 µM
COC(=O)Cn1nc(Cc2cc(C)c(C(=O)c3ccc(Cl)cc3)n2C)ccc1=O [Compound 116, {3-[5-(4-chloro-benzoyl)-1,4,-dimethyl-1H-pyrrol-2-ylmethyl]-6-oxo-6H-pyridazin-1-yl}-acetic acid methyl ester]	0.18 µM	0.92 µM
